Our source for the IC50 values is US4994465A, “Antihyperlipidemic and antiatherosclerotic trisubstituted urea compounds” (Warner-Lambert Company, priority 1990, dated 1991).

For the experiment, the target named is T1, acyl-CoA:cholesterol acyltransferase (ACAT) (Oryctolagus cuniculus, UniProt G1SFD9).
T1 construct: a tissue preparation containing rabbit intestinal microsomes; from tissue; host or cells: rabbit intestinal microsomes
T1 sequence (G1SFD9 1-524): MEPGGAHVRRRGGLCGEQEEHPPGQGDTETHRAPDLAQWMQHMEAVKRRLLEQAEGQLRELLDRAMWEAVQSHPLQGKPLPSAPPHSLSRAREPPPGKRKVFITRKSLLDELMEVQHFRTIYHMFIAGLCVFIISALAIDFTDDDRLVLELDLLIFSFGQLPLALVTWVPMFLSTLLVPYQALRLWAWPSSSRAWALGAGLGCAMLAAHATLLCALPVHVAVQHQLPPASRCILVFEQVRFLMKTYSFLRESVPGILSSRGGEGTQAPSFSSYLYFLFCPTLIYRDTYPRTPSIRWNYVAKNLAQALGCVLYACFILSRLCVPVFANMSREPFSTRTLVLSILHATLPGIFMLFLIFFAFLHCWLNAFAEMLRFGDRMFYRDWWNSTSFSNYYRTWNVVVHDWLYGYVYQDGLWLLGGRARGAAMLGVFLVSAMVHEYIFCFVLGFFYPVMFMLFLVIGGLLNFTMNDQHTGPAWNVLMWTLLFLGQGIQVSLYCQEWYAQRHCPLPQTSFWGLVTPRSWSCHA
The experiment in a line: ACAT inhibition in vitro: radiolabeled cholesterol oleate formed from radiolabeled oleic acid in rabbit intestinal microsomes. The note with it: concentration required to inhibit 50% […] of the enzyme. Format: biochemical. As for the experimental part:
The ability of representative compounds of the present invention to inhibit ACAT was measured using an in vitro test more fully described in Field, F. J. and Salone, R. G., Biochemica et Biophysica 712:557-570 (1982). The test assesses the ability of a test compound to inhibit the acylation of cholesterol by oleic acid by measuring the amount of radiolabeled cholesterol oleate formed from radiolabeled oleic acid in a tissue preparation containing rabbit intestinal microsomes.
The data appear in Table 1 where they are expressed in IC50 values; i.e., the concentration of test compound required to inhibit 50% […] of the enzyme.
On to `O=C(Nc1ccc(F)cc1F)N(Cc1ccccc1)CC(c1ccccc1)c1ccccc1` [Example 1, N'-(2,4-difluorophenyl)-N-benzyl-N-[(2,2-diphenyl)ethyl]urea], for which the half-maximal inhibitory concentration (IC50) stood at 0.29 µM.
Then `Cc1cccc(C)c1NC(=O)N(Cc1ccccc1)CC(c1ccccc1)c1ccccc1` [Example 2, N'-[(2,6-dimethyl)phenyl]-N-benzyl-N-[(2,2-diphenyl)ethyl]urea], with 1.37 µM; and `CC(C)c1cccc(C(C)C)c1NC(=O)N(Cc1ccccc1)CC(c1ccccc1)c1ccccc1` [Example 3, N'-[2,6-bis(1-methylethyl)phenyl]-N-benzyl-N-[(2,2-diphenyl)ethyl]urea], with 1.3 µM.
Then `O=C(Nc1ccc(F)cc1F)N(Cc1ccccc1)CC1(c2ccccc2)CCCC1` [Example 4, N'-(2,4-difluorophenyl)-N-benzyl-N-[(1-phenylcyclopentyl)methyl]urea], with 0.09 µM; and `O=C(Nc1c(Cl)cccc1Cl)N(Cc1ccccc1)CC1(c2ccccc2)CCCC1` [Example 5, N'-(2,6-dichlorophenyl)-N-benzyl-N-[(1-phenylcyclopentyl)methyl]urea], with 0.051 µM; and `Cc1cc(C)c(NC(=O)N(Cc2ccccc2)CC2(c3ccccc3)CCCC2)c(C)c1` [Example 6, N'-(2,4,6-trimethylphenyl)-N-benzyl-N-[(1-phenylcyclopentyl)methyl]urea], with 0.08 µM.
For the compound `CC(C)c1cccc(C(C)C)c1NC(=O)N(Cc1ccccc1)CC1(c2ccccc2)CCCC1` [Example 7, N'-[2,6-bis(1-methylethyl)phenyl]-N-benzyl-N-[(1-phenylcyclopentyl)methyl]urea], the IC50 turned out to be 0.17 µM.
As for `Cc1cccc(C)c1NC(=O)N(Cc1ccccc1)CC1(c2ccccc2)CCCC1` [Example 8, N'-[(2,6-dimethyl)phenyl]-N-benzyl-N-[(1-phenylcyclopentyl)methyl]urea], it took 0.059 µM to reach half-maximal inhibition (IC50). Compared with the last compound, the IC50 is about 2.9-fold lower.
Then `CCCCCCCN(CC1(c2ccccc2)CCCC1)C(=O)Nc1c(C(C)C)cccc1C(C)C` [Example 9, N'-[2,6-bis(1-methylethyl)phenyl]-N-heptyl-N-[(1phenylcyclopentyl)methyl]urea], with 0.11 µM; and `CCCCCCCN(CC1(c2ccccc2)CCCC1)C(=O)Nc1c(C)cccc1C` [Example 10], with 0.061 µM.
The value for `CCCCCCCN(CC1(c2ccccc2)CCCC1)C(=O)Nc1ccc(F)cc1F` [Example 11, N'-(2,4-difluorophenyl)-N-heptyl-N-[(1-phenylcyclopentyl)methyl]urea] was 0.31 µM.
`CCCCCCCN(CC(c1ccccc1)c1ccccc1)C(=O)Nc1c(C)cccc1C` [Example 12, N'-[(2,6-dimethyl)phenyl]-N-heptyl-N-[(2,2-diphenyl)ethyl]urea] gave an IC50 of 1.3 µM.
The value for `CCCCCCCN(CC(c1ccccc1)c1ccccc1)C(=O)Nc1ccc(F)cc1F` [Example 13, N'-(2,4-difluorophenyl)-N-heptyl-N-[(2,2-diphenyl)ethyl]urea] was 0.17 µM.
